Measured values from US9937151B2, “Carbapenem antibacterials with gram-negative activity” (priority 2010, dated 2018).
Values after ≈ are worked out from the molar mass of the structure shown.

System: G(−) bacterial strains
Experiment: Dilution antimicrobial susceptibility tests (MIC, NCCLS agar dilution / broth dilution)
Format: cell-based, Gram-negative organisms
Details: unit assumed
Procedure: The MIC (minimum inhibitory concentration) was determined by the NCCLS (National Committee for Clinical Laboratory Standards) methods 2000. Methods for dilution antimicrobial susceptibility testing for bacteria that growth aerobically (M7-A5, vol. 20, No. 2). The agar dilution method for determining antimicrobial susceptibility was carried out using Mueller-Hinton agar. A final inoculum of 10^4 CFU/spot was applied with an inoculation device. Broth dilution tests were performed with 5×10^5 CFU/well in 96 well plates. The susceptibilities of streptococci were determined by Mueller-Hinton agar supplemented with 5% sheep blood. All assays were run with the indicated control strains, available from the ATCC (American Type Culture Collection, Rockville, Md.).
Abbreviations used in Table 1 are defined as follows: Cf-R: Ceftazidime Resistance, Ci-R: Ciprofloxacin Resistance, Gen-R: Gentamycin Resistance, Imp-R: Imipenem Resistance, Mp-R: Meropenem Resistance, Ofx-R: Ofloxacin Resistance, B+: β-lactamase Production, AmpC: AmpC-lactamase Hyper production, CBPase: Carbapenemase Production.

[1] = strain #1 Acinetobacter calcoaceticus
[2] = strain #2 Acinetobacter baumannii, Cf-R, Ci-R
[3] = strain #3 Acinetobacter baumannii, Cf-R, Ci-R, Mp-I
[4] = strain #4 Acinetobacter baumannii, Cf-R, Imp-I, CBPase
[5] = strain #7 Enterobacter aerogenes
[6] = strain #8 Enterobacter cloacae, Cf-R, B+
[7] = strain #9 Enterobacter cloacae, Cf-R
[8] = strain #10 Escherichia coli, Ci-R
[9] = strain #11 Escherichia coli, Ci-R, AmpC
[10] = strain #15 Klebsiella pneumoniae
[11] = strain #16 Moraxella catarrhalis
[12] = strain #21 Providencia rettgeri
[13] = strain #22 Salmonella typhimurium
[14] = strain #25 Shigella dysenteriae
[15] = strain #28 Stenotrophomonas maltophilia
[16] = strain #29 Pseudomonas aeruginosa
[17] = strain #30 Pseudomonas aeruginosa
[18] = strain #31 Pseudomonas aeruginosa, Ofx-R
[19] = strain #32 Pseudomonas aeruginosa, Cf-R
[20] = strain #33 Pseudomonas aeruginosa, Ci-R
[21] = strain #34 Pseudomonas aeruginosa, Gen-R
[22] = strain #35 Pseudomonas aeruginosa, Ip-R
[23] = strain #36 Pseudomonas aeruginosa, Cf-R, Ci-R, Mp-R

| Structure (SMILES) | MIC [1] [µg/mL] | MIC [2] [µg/mL] | MIC [3] [µg/mL] | MIC [4] [µg/mL] | MIC (strain #5 Citrobacter diversus) [µg/mL] | MIC (strain #6 Citrobacter freundii) [µg/mL] | MIC [5] [µg/mL] | MIC [6] [µg/mL] | MIC [7] [µg/mL] | MIC [8] [µg/mL] | MIC [9] [µg/mL] | MIC (strain #12 Escherichia coli) [µg/mL] | MIC (strain #13 Escherichia coli) [µg/mL] | MIC (strain #14 Klebsiella oxytoca) [µg/mL] | MIC [10] [µg/mL] | MIC [11] [µg/mL] | MIC (strain #17 Morganella Morganii) [µg/mL] | MIC (strain #18 Morganella Morganii) [µg/mL] | MIC (strain #19 Proteus vulgaris) [µg/mL] | MIC (strain #20 Proteus mirabilis) [µg/mL] | also measured |
| --- | --- | --- | --- | --- | --- | --- | --- | --- | --- | --- | --- | --- | --- | --- | --- | --- | --- | --- | --- | --- | --- |
| C[C@@H](O)[C@H]1C(=O)N2C(C(=O)O)=C(CN3CC(O)C(NC(=N)N)C3)[C@H](C)[C@H]12 (mixture of isomers) [Compound 176] | 0.13 | 0.5 | 1 | 1 | 0.063 | 0.13 | 0.25 | 0.063 | 0.13 | 0.063 | 0.063 | 0.063 | 0.13 | 0.13 | 0.13 | ≤ 0.008 | 1 | 0.5 | 0.25 | 0.063 | MIC [12]: 0.25 µg/mL; MIC [13]: 0.13 µg/mL; MIC (strain #23 Serratia marcescens): 0.25 µg/mL; MIC (strain #24 Serratia marcescens): 0.25 µg/mL; MIC [14]: 0.13 µg/mL; MIC (strain #26 Shigella sonnei): 0.063 µg/mL; MIC (strain #27 Shigella flexneri): 0.063 µg/mL; MIC [15]: 0.063 µg/mL; MIC [16]: 1 µg/mL; MIC [17]: 1 µg/mL; MIC [18]: 0.5 µg/mL; MIC [19]: 1 µg/mL; MIC [20]: 1 µg/mL; MIC [21]: 1 µg/mL; MIC [22]: 2 µg/mL; MIC [23]: 8 µg/mL |
| CC(O)C1C(=O)N2C(C(=O)O)=C(CN3CC(O)C(C(=N)N)C3)C(C)C12 (mixture of isomers) [Compound 185b] | 0.13 | 0.5 | 2 | 1 | 0.063 | 0.063 | 0.25 | 0.063 | 0.13 | 0.031 | 0.031 | 0.031 | 0.063 | 0.13 | 0.13 | ≤ 0.008 | 0.5 | 0.5 | 0.25 | 0.063 | MIC [12]: 0.25 µg/mL; MIC [13]: 0.063 µg/mL; MIC (strain #23 Serratia marcescens): 0.13 µg/mL; MIC (strain #24 Serratia marcescens): 0.13 µg/mL; MIC [14]: 0.063 µg/mL; MIC (strain #26 Shigella sonnei): 0.063 µg/mL; MIC (strain #27 Shigella flexneri): 0.063 µg/mL; MIC [15]: 0.13 µg/mL; MIC [16]: 1 µg/mL; MIC [17]: 1 µg/mL; MIC [18]: 0.5 µg/mL; MIC [19]: 1 µg/mL; MIC [20]: 1 µg/mL; MIC [21]: 1 µg/mL; MIC [22]: 4 µg/mL; MIC [23]: 8 µg/mL |
| C[C@@H](O)C1C(=O)N2C(C(=O)O)=C(CN3CC[C@H](C#N)C3)[C@H](C)C12 (stereo partly drawn) [Compound 7] | 4 (≈ 12.5 µM) | 2 (≈ 6.26 µM) | 4 (≈ 12.5 µM) | 4 (≈ 12.5 µM) | 0.063 (≈ 0.197 µM) | 0.13 (≈ 0.407 µM) | 0.5 (≈ 1.57 µM) | 0.13 (≈ 0.407 µM) | 0.25 (≈ 0.783 µM) | 0.13 (≈ 0.407 µM) | 0.13 (≈ 0.407 µM) | 0.13 (≈ 0.407 µM) | 0.13 (≈ 0.407 µM) | 0.25 (≈ 0.783 µM) | 0.25 (≈ 0.783 µM) | ≤ 0.008 | 1 (≈ 3.13 µM) | 1 (≈ 3.13 µM) | 0.5 (≈ 1.57 µM) | 0.13 (≈ 0.407 µM) | MIC [12]: 0.5 µg/mL (≈ 1.57 µM); MIC [13]: 0.13 µg/mL (≈ 0.407 µM); MIC (strain #23 Serratia marcescens): 0.25 µg/mL (≈ 0.783 µM); MIC (strain #24 Serratia marcescens): 0.5 µg/mL (≈ 1.57 µM); MIC [14]: 0.25 µg/mL (≈ 0.783 µM); MIC (strain #26 Shigella sonnei): 0.13 µg/mL (≈ 0.407 µM); MIC (strain #27 Shigella flexneri): 0.13 µg/mL (≈ 0.407 µM); MIC [15]: 0.5 µg/mL (≈ 1.57 µM); MIC [16]: 16 µg/mL (≈ 50.1 µM); MIC [17]: 8 µg/mL (≈ 25.1 µM); MIC [18]: 2 µg/mL (≈ 6.26 µM); MIC [19]: 8 µg/mL (≈ 25.1 µM); MIC [20]: 8 µg/mL (≈ 25.1 µM); MIC [21]: 8 µg/mL (≈ 25.1 µM); MIC [22]: 32 µg/mL (≈ 100 µM); MIC [23]: > 32 µg/mL |
